Question: With O=P(O)(O)C(O)(Cn1ccnc1)P(=O)(O)O [zoledronic acid, 1-hydroxy-2-(imidazol-1-yl)ethane-1,1-diphosphonic acid] as the compound, how does the “Zoledronic acid solubility in all the excipients (liquid lipidic media)” value (assessed visually) read?
Answer: < 0.2 mg/g of excipient

Question: What about the “Solubility of zoledronic acid in VITAMIN E-TPGS” value (at 40° C.) of the same compound?
Answer: less than 0.22 mg/g

Question: What about the “Solubility of zoledronic acid in GELUCIRE 50/13” value (at 60° C.) of the same compound?
Answer: less than 1 mg/g

Question: And the “Solubility in pH 4.5 acetate buffer” value (pH 4.5)?
Answer: readily soluble

Question: What about the “Precipitation upon addition of flush” value (pH 4.5 acetate buffer solution, tap water (final pH 3.8) or citric acid (final pH~2.2) flush) of the same compound?
Answer: does not precipitate out
